{"source": "patent US20040121398A1", "about": "(priority 2000, published 2004)", "key": {"B10 cells": {"system": "B10 cells", "format": "cell-based, human"}, "VTII and Bcl-2": {"system": "VTII and Bcl-2", "test": "Far Western blotting of VTII/Bcl-2 complex formation (B10 cell extract, biotinylated VTII)", "format": "binding, human", "conditions": "extract of Bcl-2-expressing B10 cells, biotinylated VTII, in the presence of NWGRI"}}}
{"substance": "NWGRI", "values": [{"measurement": "induction of apoptotic cell death by VTII", "setting": "B10 cells", "value": "suppressed"}, {"measurement": "complex formation of VTII and Bcl-2", "setting": "VTII and Bcl-2", "value": "interrupted the complex formation of VTII and Bcl-2 in a dose dependent manner"}]}
